Laboratory results: patent US20120225777A1, “Azolylmethyloxiranes, Their Use for Controlling Phytopathogenic Fungi and Compositions Comprising Them” (BASF SE, priority 2006, published 2012)

Experiments:
[1] = tested on: Pyrenophora [syn. Drechslera] teres; test: Activity against net blotch of barley caused by Pyrenophora teres, 1 day protective application (Pymte P1), greenhouse; assay type: in vivo, Pyrenophora teres on barley; details: Comparative Example 2, Table 10, barley seedlings, 6 days, untreated 90
Description: (§1) The active compounds were prepared separately or jointly as a stock solution comprising 25 mg of active compound which was made up to 10 ml using a mixture of acetone and/or DMSO and the emulsifier Wettol EM 31 (wetting agent having emulsifying and dispersing action based on ethoxylated alkylphenols) in a volume ratio of solvent/emulsifier of 99:1. The mixture was then made up to 100 ml with water. This stock solution was diluted with the solvent/emulsifier/water mixture described to give the concentration of active compounds stated below.
Leaves of potted barley seedlings were sprayed to runoff point with an aqueous suspension having the active compound concentration stated below. 24 hours after the spray coating had dried on, the test plants were inoculated with an aqueous spore suspension of Pyrenophora [syn. Drechslera] teres, the net blotch pathogen. The test plants were then placed in a greenhouse at temperatures between 20 and 24° C. and at 95 to 100% relative atmospheric humidity. After 6 days, the extent of the development of the disease was determined visually in % infection of the entire leaf area.

Sphaerotheca fuliginea = test: Activity against mildew on cucumber leaves caused by Sphaerotheca fuliginea, protective application (Sphrfu P1), greenhouse; assay type: in vivo; details: Comparative Example 1, Table 9, cucumber seedlings, 7 days, untreated 90
Description: as §1
Leaves of potted cucumber seedlings were, at the cotyledon stage, sprayed to runoff point with an aqueous suspension having the active compound concentration stated below. 20 hours after the spray coating had dried on, the plants were inoculated with an aqueous spore suspension of mildew of cucumber (Sphaerotheca fuliginea). The plants were then cultivated in a greenhouse at temperatures between 20 and 24° C. and 60 to 80% relative atmospheric humidity for 7 days. The extent of the mildew development was then determined visually in % infection of the cotyledon area.

Fc1cc(F)c([C@@]2(Cn3cncn3)O[C@@H]2c2ccccc2Cl)cc1F (racemic) [Compound 8.6]
Infection in % at 4 ppm for Pyrnte P1 [1]: 40%

Cc1ccccc1[C@H]1O[C@]1(Cn1cncn1)c1cc(F)c(F)cc1F (racemic) [Compound 8.7]
Infection in % at 63 ppm for Sphrfu P1 (Sphaerotheca fuliginea): 0%

Cc1ccccc1[C@H]1O[C@]1(Cn1cncn1)c1ccc(F)cc1F [B 255 from EP-A 0 421 125]
Infection in % at 63 ppm for Sphrfu P1 (Sphaerotheca fuliginea): 90%

Fc1ccc([C@@]2(Cn3cncn3)O[C@@H]2c2ccccc2Cl)cc1 [Comp. 8 of EP-A 0 196 038]
Infection in % at 4 ppm for Pyrnte P1 [1]: 90%
